Where a name gives a salt, the structure may show the parent alone.
tested on: Generation of Procollagen I C-Terminal Propeptide (PICP); assay: Cell-based inhibition assay of generation of procollagen I C-terminal propeptide (PICP), PICP ELISA; settings: Cardiac fibroblast, human cardiac fibroblasts, 24 to 48 hr, read-out: pIC50, PICP cellular inhibition assay (converted)
Experimental: (§1) An adaptation of the collagen deposition assay described by Chen, C. Z. C., et al., British Journal of Pharmacology, 2009, 158, 1196-1209 is used to examine effect of compounds on procollagen I processing and collagen deposition. In the adapted assay, human cardiac fibroblasts are utilized. Processing of procollagen I is determined by a PICP ELISA assay and deposition of mature collagen is determined by immunostaining.
(§2) Human cardiac fibroblasts are cultured and maintained until passage 6 in FGM-3 media (Lonza, #CC-3132) in a 37° C. humidified incubator with 5% CO2. They are then seeded in 96-well black wall, clear bottom plates at 10,000 to 15,000 cells per well in eagle's minimum essential media (EMEM, ATCC #30-2003) containing 10% fetal bovine serum (FBS, Life Technologies #10082147), 1% Glutamax (Life Technologies #35050061) and 1% Penicillin and Streptomycin (Life Technologies #15070063). These cultures are placed in 37° C. incubator. The next day, media is removed by aspiration and cells are rinsed with phosphate buffered saline. Crowding media (also called ficoll media) is prepared by adding 112.5 mg/ml of ficoll70 and 75 mg/ml ficoll400 (GE healthcare #17-0310-10 and 17-0300-10, respectively), 100 μM ascorbic acid, 1% Glutamax and 1% Penicillin and Streptomycin to EMEM media. Test compounds (dissolved in DMSO) are diluted into crowding media and then added to the cells. Final concentration of DMSO in crowding media is less than 0.3%. Cells are treated for 24 to 48 hr in a 37° C. incubator. At the end of the treatment period, cell media are collected. The level of PICP in the media is determined by a PICP ELISA assay (Quidel #8003) following the manufacturer's protocol. Potencies of test compounds are calculated by fitting PICP levels, relative to untreated controls, to log (inhibitor) vs. response equation using Graphpad Prism software 5.0 and expressed as pIC50.

| Structure (SMILES) | IC50 [nM] |
| --- | --- |
| CCCCC[C@@H](C(=O)NCNC(=O)c1ccc(-c2cc(OCC)cc(P(=O)(O)Oc3ccccc3)c2)o1)[C@@H](CC)N(O)C=O [Example 400, Phenyl Hydrogen (3-ethoxy-5-(5-((((R)-2-((R)-1-(N-hydroxyformamido)propyl)heptanamido)methyl)carbamoyl)furan-2-yl)phenyl)phosphonate, Ammonia Salt] | < 398 |
| CCCCC[C@@H](C(=O)NCNC(=O)c1ccc(-c2ccc(C(=O)N[C@@H](CC(=O)OCC)C(=O)OCC)c(OCC)c2)o1)[C@@H](CC)N(O)C=O [Example 143, (S)-diethyl 2-(2-ethoxy-4-(5-((((R)-2-((R)-1-(N-hydroxyformamido)propyl)heptanamido)methyl)carbamoyl)furan-2-yl)benzamido)succinate] | < 398 |
| CCCCC[C@@H](C(=O)NCNC(=O)c1ccc(-c2ccc(C(=O)OCCCC)cc2)o1)[C@@H](CC)N(O)C=O [Example 101, butyl 4-(5-((((R)-2-((R)-1-(N-hydroxyformamido)propyl)heptanamido)methyl)carbamoyl)furan-2-yl)benzoate] | < 398 |
| CCCCC[C@@H](C(=O)NCNC(=O)c1ccc(-c2ccc(C(=O)N[C@@H](CC(=O)OC(C)(C)C)C(=O)OC(C)(C)C)c(OCC)c2)o1)[C@@H](CC)N(O)C=O [Example 112, (S)-di-tert-butyl 2-(2-ethoxy-4-(5-((((R)-2-((R)-1-(N-hydroxyformamido)propyl)heptanamido)methyl)carbamoyl)furan-2-yl)benzamido) succinate] | < 398 |
| CCCCC[C@@H](C(=O)NCNC(=O)c1ccc(-c2cc(OCC)cc(P(=O)(OCOC(C)=O)OCOC(C)=O)c2)o1)[C@@H](CC)N(O)C=O [Example 115, (((3-ethoxy-5-(5-((((R)-2-((R)-1-(N-hydroxyformamido)propyl)heptanamido)methyl)carbamoyl)furan-2-yl)phenyl)phosphoryl)bis(oxy))bis (methylene) diacetate] | < 398 |
| CCCCC[C@@H](C(=O)NCNC(=O)c1ccc(-c2cc(OCC)cc(P(=O)(O)OCOC(=O)OC(C)C)c2)o1)[C@@H](CC)N(O)C=O [Example 302, (((3-ethoxy-5-(5-((((R)-2-((R)-1-(N-hydroxyformamido)propyl)heptanamido)methyl)carbamoyl)furan-2-yl)phenyl) (hydroxy)phosphoryl)oxy)methyl isopropyl carbonate] | < 398 |
| CCCCC[C@@H](C(=O)NCNC(=O)c1ccc(-c2ccc(C(=O)N[C@@H](CC(=O)O)C(=O)OC(C)(C)C)c(OCC)c2)o1)[C@@H](CC)N(O)C=O [Example 114, (S)-4-(tert-butoxy)-3-(2-ethoxy-4-(5-((((R)-2-((R)-1-(N-hydroxyformamido)propyl)heptanamido)methyl)carbamoyl)furan-2-yl)benzamido)-4-oxobutanoic acid] | < 398 |
| CCCCC[C@@H](C(=O)NCNC(=O)c1ccc(-c2ccc(C(=O)OCCN(C)C)cc2)o1)[C@@H](CC)N(O)C=O [Example 104, 2-(dimethylamino) ethyl 4-(5-((((R)-2-((R)-1-(N-hydroxyformamido)propyl)heptanamido)methyl)carbamoyl)furan-2-yl)benzoate] | < 398 |
| CCCCC[C@@H](C(=O)NCNC(=O)c1ccc(-c2ccc(C(=O)N[C@@H](CC(=O)O)C(=O)OCC)c(OCC)c2)o1)[C@@H](CC)N(O)C=O [Example 113, (S)-4-ethoxy-3-(2-ethoxy-4-(5-((((R)-2-((R)-1-(N-hydroxyformamido)propyl)heptanamido)methyl)carbamoyl)furan-2-yl)benzamido)-4-oxobutanoic acid] | < 398 |
| CCCCC[C@@H](C(=O)NCNC(=O)c1ccc(-c2ccc(C(=O)OCC)cc2)o1)[C@@H](CC)N(O)C=O [Example 100, ethyl 4-(5-((((R)-2-((R)-1-(N-hydroxyformamido)propyl)heptanamido)methyl)carbamoyl)furan-2-yl)benzoate] | < 398 |
| CCCCC[C@@H](C(=O)NCNC(=O)c1ccc(-c2ccc(C(=O)N[C@@H](CC(=O)O)C(=O)OCOC(=O)c3ccccc3)c(OCC)c2)o1)[C@@H](CC)N(O)C=O [Example 116, (S)-4-((benzoyloxy)methoxy)-3-(2-ethoxy-4-(5-((((R)-2-((R)-1-(N-hydroxyformamido)propyl)heptanamido)methyl)carbamoyl)furan-2-yl)benzamido)-4-oxobutanoic acid] | < 398 |
| CCCCC[C@@H](C(=O)NCNC(=O)c1ccc(-c2ccc(C(=O)N[C@@H](CC(=O)OC)C(=O)OC)c(OCC(=O)OC)c2)o1)[C@@H](CC)N(O)C=O [Example 142, (S)-dimethyl 2-(4-(5-((((R)-2-((R)-1-(N-hydroxyformamido)propyl)heptanamido)methyl)carbamoyl)furan-2-yl)-2-(2-methoxy-2-oxoethoxy)benzamido)succinate] | < 398 |

tested on: deposition of mature collagen; assay: Cell-based inhibition assay of mature collagen deposition (immunostaining); settings: Cardiac fibroblast; human cardiac fibroblasts, immunostaining of mature collagen I; read-out: pIC50, mature collagen cellular inhibition assay (converted)
Experimental: as §1, §2
For some compounds, deposition of mature collagen is measured by immunostaining in addition to PICP levels. At the end of the treatment period, cells on culture plate are fixed with 100% methanol (prechilled to −20° C.) for 10 min. Then the cells are immunostained with mouse anti-mature collagen I antibody (1:500 dilution, Sigma#C2456), anti-mouse secondary antibody Alexa647 (1:500 dilution, Invitrogen#A21236) and Hoechst (for nuclei, 2 μg/ml, Invitrogen#H3596). Fluorescent image acquisition is done using the Operetta High Content Imaging system (Perkin Elmer). For each image field, the intensity of mature collagen staining is normalized with the number of nuclei. Normalized collagen levels are used to calculate the potency of test compounds with Graphpad Prism software, as described above.

| Structure (SMILES) | IC50 [nM] |
| --- | --- |
| CCCCC[C@@H](C(=O)NCNC(=O)c1ccc(-c2ccc(C(=O)N[C@@H](CC(=O)O)C(=O)O)c(OCC)c2)o1)[C@@H](CC)N(O)C=O [WO2015/104684 Example 74, (S)-2-(2-ethoxy-4-(5-((((R)-2-((R)-1-(N-hydroxyformamido)propyl)heptanamido)methyl)carbamoyl)furan-2-yl)benzamido)succinic acid] | < 1000 |
| CCCCC[C@@H](C(=O)NCNC(=O)c1ccc(-c2ccc(C(=O)N[C@@H](CC(=O)O)C(=O)O)c(OCC(=O)O)c2)o1)[C@@H](CC)N(O)C=O [WO2015/104684 Example 126, (S)-2-(2-(carboxymethoxy)-4-(5-((((R)-2-((R)-1-(N-hydroxyformamido)propyl)heptanamido)methyl)carbamoyl)furan-2-yl)benzamido)succinic acid] | < 1000 |
| CCCCC[C@@H](C(=O)NCNC(=O)c1ccc(-c2ccc(C(=O)NCP(=O)(O)O)c(OCC)c2)o1)[C@@H](CC)N(O)C=O [WO2015/104684 Example 139, ((2-ethoxy-4-(5-((((R)-2-((R)-1-(N-hydroxyformamido)propyl)heptanamido)methyl)carbamoyl)furan-2-yl)benzamido)methyl)phosphonic acid] | < 1000 |
| CCCCC[C@@H](C(=O)NCNC(=O)c1ccc(-c2cc(OCC)cc(P(=O)(O)O)c2)o1)[C@@H](CC)N(O)C=O [WO2015/104684 Example 96, (3-ethoxy-5-(5-((((R)-2-((R)-1-(N-hydroxyformamido)propyl)heptanamido)methyl)carbamoyl)furan-2-yl)phenyl)phosphonic acid] | < 1000 |

Reference: patent US20180362485A1, “N-HYDROXYFORMAMIDE COMPOUNDS AND COMPOSITIONS COMPRISING THEM FOR USE AS BMP l, TLL1 AND/OR TLL2 INHIBITORS” (GlaxoSmithKline Intellectual Property (No. 2) Limited, priority 2015, published 2018)
